The term MIC denotes the lowest concentration found to suppress growth. Usually IC50 stands for the point on the concentration scale where inhibition reaches its midpoint.

For assay [1], the system named is Staphylococcus epidermidis. Nature of the assay: In vitro antibacterial activity (CLSI dilution MIC). In kind it is cell-based.
The test system of assay [2] is Enterococcus faecium ATCC 51559 (VRE resistant). Described as above. The class given is cell-based.
Assay [3] has as its system Bacillus subtilis MTCC 441. Described as above. The conditions noted are these: MTCC441. In kind it is cell-based.
In assay [4] the test system is Staphylococcus aureus ATCC BAA-1556 (MERSA resistant). The assay is described as above. The class given is cell-based. The conditions noted are these: ATCCBAA1556.
The test system of assay [5] is Staphylococcus aureus ATCC 29213. Described as above. In kind it is cell-based. The settings on record: ATCC29213.
The test system of assay [6] is Pseudomonas aeruginosa MTCC 741. The description is as above. The class given is cell-based. The settings on record: MTCC741.
Assay [7] concerns Klebsiella pneumonia MTCC 618. The description is as above. The settings on record: Klebsiella pneumoniae, MTCC618. In kind it is cell-based.
Assay [8] relates to Escherichia coli MTCC 443. The description is as above. The conditions noted are these: MTCC443. The class given is cell-based.
The test system of assay [9] is Mycobacterium tuberculosis H37Rv strain. Nature of the assay: Anti-tubercular alamar blue microplate MIC assay. The class given is cell-based. The conditions noted are these: 168 h, 7 days, read-out: anti-mycobacterial activity (MIC).
Assay [10] relates to Enterococcus faecium ATCC 35667. Nature of the assay: In vitro antibacterial activity (CLSI dilution MIC). The class given is cell-based. The conditions noted are these: ATCC35667.
The target of the next assay is T1, DNA gyrase from E. coli (Escherichia coli, UniProt P0AES4+P0AES6).
T1 construct: purchased Inspiralis
T1 sequence (P0AES4 whole entry, one chain of several): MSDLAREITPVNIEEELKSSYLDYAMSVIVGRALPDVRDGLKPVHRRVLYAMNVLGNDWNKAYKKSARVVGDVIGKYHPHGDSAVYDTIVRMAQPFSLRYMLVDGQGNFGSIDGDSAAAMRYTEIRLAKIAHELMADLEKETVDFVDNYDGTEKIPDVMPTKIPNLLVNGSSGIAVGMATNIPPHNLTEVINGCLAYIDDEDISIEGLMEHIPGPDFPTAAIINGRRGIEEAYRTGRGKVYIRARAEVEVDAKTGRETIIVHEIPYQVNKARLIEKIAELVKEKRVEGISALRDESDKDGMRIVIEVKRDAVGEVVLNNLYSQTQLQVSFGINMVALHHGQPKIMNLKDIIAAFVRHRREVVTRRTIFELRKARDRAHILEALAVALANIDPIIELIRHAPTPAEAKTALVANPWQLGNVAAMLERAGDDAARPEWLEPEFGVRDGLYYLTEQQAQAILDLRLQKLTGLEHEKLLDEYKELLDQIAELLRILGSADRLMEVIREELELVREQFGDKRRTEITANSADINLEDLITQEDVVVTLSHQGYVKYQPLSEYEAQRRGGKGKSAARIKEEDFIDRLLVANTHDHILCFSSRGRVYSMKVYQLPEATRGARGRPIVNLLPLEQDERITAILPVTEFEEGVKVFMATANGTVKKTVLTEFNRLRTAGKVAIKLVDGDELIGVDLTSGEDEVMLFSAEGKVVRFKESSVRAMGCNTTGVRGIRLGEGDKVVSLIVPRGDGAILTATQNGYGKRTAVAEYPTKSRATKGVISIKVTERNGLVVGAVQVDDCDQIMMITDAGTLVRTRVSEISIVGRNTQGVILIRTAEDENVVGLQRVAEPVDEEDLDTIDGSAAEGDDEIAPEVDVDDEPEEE
Nature of the assay: Inspiralis E. coli DNA gyrase inhibition assay. The class given is biochemical. On the procedure: Inhibitory potencies were investigated utilizing the Inspiralis assay on streptavidin-coated 96-well microtiter plates. First, the plates were rehydrated with buffer (20 mM Tris-HCl with pH 7.6, 0.01% w/v BSA, 0.05% v/v Tween 20, 137 mM NaCl) and the biotinylated oligonucleotide was then immobilized. After washing off the unbound oligonucleotide, the enzyme test was performed. The reaction volume of 30 μL in buffer (35 mM Tris×HCl with pH 7.5, 4 mM MgCl2, 24 mM KCl, 2 mM DTT, 1.8 mM spermidine, 1 mM ATP, 6.5% w/v glycerol, 0.1 mg/mL albumin) contained 1.5 U of DNA gyrase from E. coli, 0.75 μg of relaxed pNO1 plasmid, and 3 μL solution of the inhibitor in 10% DMSO and 0.008% Tween 20. Reaction solutions were incubated at 37° C. for 30 min. After that, the TF buffer (50 mM NaOAc with pH 5.0, 50 mM NaCl and 50 mM MgCl2) was added to terminate the enzymatic reaction. After additional incubation for 30 min at rt, during which biotinoligonucleotide-plasmid triplex was formed, the unbound plasmid was washed off using TF buffer and SybrGOLD in T10 buffer (10 mM Tris HCl with pH 8.0 and 1 mM EDTA) was added. The fluorescence was measured with a microplate reader (BioTek Synergy H4, excitation: 485 nm, emission: 535 nm). Initial screening was done at 100 or 10 μM concentration of inhibitors. […] GraphPad Prism software was used to calculate the IC50 values. […]

Converted amounts (≈) assume the structure as drawn. Like-named read-outs stand apart in the source and are kept apart here.

`CC(=O)Nc1ccc2oc3c4ccc(CC(=O)O)cc4oc(=O)c3c2c1` [Compound 5, 2-(8-acetamido-6-oxo-6H-benzofuro[3,2-c]chromen-3-yl)acetic acid]: the MIC in assay [1] was 2 µg/mL (≈ 5.69 µM); in [2], 0.5 µg/mL (≈ 1.42 µM); in assay [3] (Bacillus subtilis MTCC 441, read-out: MIC), 0.55 µg/mL (≈ 1.57 µM); in assay [4], 1 µg/mL (≈ 2.85 µM); in assay [5], 1 µg/mL (≈ 2.85 µM); in [6] (Pseudomonas aeruginosa MTCC 741, read-out: MIC), 0.25 µg/mL (≈ 0.712 µM). Further, the MIC in assay [7] (Klebsiella pneumonia MTCC 618, read-out: MIC) was determined as 0.75 µg/mL (≈ 2.13 µM); in [8], 0.75 µg/mL (≈ 2.13 µM); in assay [9], 1 µg/mL (≈ 2.85 µM); in assay [10], 0.55 µg/mL (≈ 1.57 µM). The IC50 on DNA gyrase from E. coli stood at 20 nM.

As for `CN[C@H](CC(C)C)C(=O)N[C@H]1C(=O)N[C@@H](CC(N)=O)C(=O)N[C@H]2C(=O)N[C@H]3C(=O)N[C@H](C(=O)N[C@H](C(=O)O)c4cc(O)cc(O)c4-c4cc3ccc4O)[C@H](O)c3ccc(c(Cl)c3)Oc3cc2cc(c3O[C@@H]2O[C@H](CO)[C@@H](O)[C@H](O)[C@H]2O[C@H]2C[C@](C)(N)[C@H](O)[C@H](C)O2)Oc2ccc(cc2Cl)[C@H]1O` [Vancomycin, reference compound], the minimum inhibitory concentration (MIC) in assay [3] (Bacillus subtilis) was 0.5 µg/mL (≈ 0.345 µM); in [6] (Pseudomonas aeruginosa), over 128 µg/mL; in assay [7], over 128 µg/mL.
